Key:
syncytium formation = conditions: literature (Mohan et al.; Tan et al.; Baba et al.); cited from earlier work
LD50, intravenous, mice = type: in vivo; conditions: female mice, mortalities within 1 week; for LD50 at 168 h: mouse, in vivo
Protocol: The test material was administered intravenously to 5 female mice in five increasing doses. Mortalities were recorded within 1 week, and the LD50 was determined with the aid of statistical calculations.

retroviruses = conditions: literature (Ito et al.); cited from earlier work
[1] = target: T1, recombinant reverse transcriptase (RT) (Human immunodeficiency virus type 1 group M subtype B, UniProt P04585); experiment: Reverse transcriptase inhibition assay; type: biochemical, HIV-1; conditions: at 0.5 μM
T1 construct: purchased Worthington Biochemical Corporation
Protocol: Inhibition of recombinant reverse transcriptase (RT) was performed by using commercially available Boehringer Mannheim RT assay kit (Cat. No. 1468 120) based on incorporation of digoxigenin labeled dUTP into DNA. Recombinant enzyme from HIV-1 was purchased from Worthington Biochemical Corporation. The level of anti-RT activity in the sample was determined by measurement of absorbance using an ELISA reader at 405 nm.

HIV-1 RF = experiment: Antiviral assay, Experimental Protocol I (compound added after infection); type: cell-based; conditions: Human immunodeficiency virus 1, 240 h, 10% FCS, p24 ELISA, read-out: % Inhibition (after day 10)
[2] = tested on: TA98, TA1535, TA1537, TA1538, TA100 and W2P2uvr; experiment: Ames Test (in the presence of S9); type: cell-based, Salmonella typhimurium
Description: Six Salmonella typhimuriumstrai strains, TA98, TA1535, TA1537, TA1538, TA100 and W2P2uvr were used in this experiment.

HIV-1 patient isolate IH = experiment: Inhibition of HIV-1 patient isolate IH in CD4^+ cells; type: cell-based; conditions: Human immunodeficiency virus 1, 288 h, 10% FCS, read-out: % Inhibition (after day 12)
Protocol: The inhibitory effects of additional naphthalenesulfonic acid compounds were tested as follows: Experimental Details:
PBMCs were activated for 48 hours in conditioned medium containing PHA at a concentration of 4 μg/ml. Thereafter 10^6 cells were plated in each of the 24 well plates containing 10% FCS or 50% FCS. The test compound, previously dissolved in a glucose solution (1 mg/ml), was then added to each of the wells to achieve the appropriate concentration. The plate was then incubated overnight (about 15 hours) after which 50 μl of cell-free HIV-1 patient isolate was added to each well. The plates were incubated for further 6 to 8 hours after which all free floating solution of virus was washed off. Washing was performed four times.
After removal of the virus, all cultures were resuspended in conditioned medium containing 10% FCS.
For control experiments virus growth was monitored in either 10% FCS or 50% FCS throughout the observation period (15 days).

HIV rgp120 / CD4 cells = conditions: literature (Balzarini et al.); cited from earlier work
standard Ames Test = conditions: literature (K-T. Chung et al); cited from earlier work

CC1=C/C(=C(\c2ccc(N)c(S(=O)(=O)[O-])c2)c2ccc(N)c(S(=O)(=O)O)c2)C=C(S(=O)(=O)[O-])C1=N.[Na+].[Na+] [Fuchsin Acid, reference compound]
inhibition of syncytium formation (syncytium formation): inhibitors of syncytium formation
LD50 (LD50, intravenous, mice; 10080 min): 100 mg/kg

dextran sulfate
anti-retroviral activity (retroviruses): known anti-retroviral compounds

COc1cc(N=Nc2c(S(=O)(=O)O)cc3cc(S(=O)(=O)O)cc(NC(=O)c4cccc5ccccc45)c3c2O)c(OC)cc1N=Nc1c(S(=O)(=O)O)cc2cc(S(=O)(=O)O)cc(NC(=O)c3ccc(Cl)cc3Cl)c2c1O [Compound 1]
inhibition at 0.5 µM [1]: 70%
inhibition at 0.6 µg/mL (HIV-1 RF; 0.6 μg/ml): 98%
inhibition at 1.25 µg/mL (HIV-1 RF; 1.25 μg/ml): 100%
inhibition at 2.5 µg/mL (HIV-1 RF; 2.5 μg/ml): 100%
inhibition at 5 µg/mL (HIV-1 RF; 5 μg/ml): 100%
Ames Test result [2]: Negative
LD50 at 168 h (LD50, intravenous, mice): 150 mg/kg
inhibition at 10 µg/mL (HIV-1 patient isolate IH; 10 μg/ml): 50%
inhibition at 20 µg/mL (HIV-1 patient isolate IH; 20 μg/ml): 100%

Cc1cc(-c2ccc(/N=N/c3ccc4c(S(=O)(=O)O)cc(S(=O)(=O)O)c(N)c4c3O)c(C)c2)ccc1/N=N/c1ccc2c(S(=O)(=O)O)cc(S(=O)(=O)O)c(N)c2c1O [Evans Blue, reference compound]
inhibition of interaction of HIV rgp120 with CD4 cells (HIV rgp120 / CD4 cells): inhibitor of the interaction of HIV rgp120 with CD4 cells
inhibition at 0.5 µM [1]: 48%
Ames Test result [2]: Positive
Ames Test, specific mutagenic activity ([2]; the higher the value, the higher the mutagenicity): 10 colony no/μg
LD50 at 168 h (LD50, intravenous, mice): 100 mg/kg
mutagenic effects in Ames Test (standard Ames Test): strong mutagenic effects
